The nature of data set [1]: cysteine reactivity assay (competitive fluorescence assay with probe 8). Format: physicochemical. The conditions noted are these: phosphate buffer (1×PBS) pH 7.5. The source says:
In order to study the kinetics of sulfonylpyrimidines reacting with free cysteine in solution, a strategy for a competitive fluorescence-based assay was adapted from previous works ([Epps and Taylor, 2001]; [Sameshima et al., 2017]). […] The reaction of probe 8 with cysteine liberates 4-methylumbelliferone as a fluorometrically detectable product (Figure 7A), and thus, the fluorescence increase can be described by the second-order rate constant k probe (Equation 1).
Upon the addition of competitive and irreversible cysteine modifiers such as sulfonylpyrimidines, the fluorescence increase of the probe reaction was hyperbolically attenuated (Figure 7B). According to the conceptual deduction described previously ([Epps and Taylor, 2001]; [Sameshima et al., 2017]), the experimental fluorescence curves can be analyzed by nonlinear regression as first-order reaction progress curves (Equation 2). The parameter k obs describes the curvature corresponding to the sum of the competing kinetics (Equation 3). Under the assumptions that 1) the competitive reaction between sulfonylpyrimidines vs. probe with cysteine is started by simultaneous addition, and 2) sulfonylpyrimidines are added at a much higher concentration than cysteine (5 µM) and the probe (5 µM), the k obs values depend substantially on the k chem value. The compound-specific second-order inactivation parameter k chem can be determined by linear regression from the k obs values of the dilution series (Equation 4). d[FL]/dt=kprobe[Cys][probe] (1) FL=[Cys]total⋅kprobe [probe]/kprobe [probe] + kchem [sulfonylpyrimidine](1−e^−kobs⋅t) (2) kobs=kchem [sulfonylpyrimidine]+kprobe [probe] (3) kchem=kobs/[sulfonylpyrimidine] (4)
Kinetic characterization of the reaction between sulfonylpyrimidines and cysteine was performed in degassed phosphate buffer (1×PBS, pH 7.5) or individual cases in bicarbonate buffer (20 mM NaHCO3, 100 mM NaCl, pH 7.5). Three technical replicates were carried out for each sulfonylpyrimidine in black flat-bottom 96-well plates. For this purpose, 50 µL buffered solution (including 5% (v/v) DMSO) of the respective sulfonylpyrimidine derivative (final: 250–3 µM) and the cysteine reactive probe 8 (final: 5 µM) were premixed. Reactions were initiated by the addition of 50 µL cysteine (final: 5 µM), dissolved in the respective buffer, and monitored for 30 min at 30°C in an Infinite M200 Pro plate reader with λex 380 nm/λem 460 nm. To calculate k obs and k chem values, fluorescence curves were fitted using the same non-linear regression as for in vitro inhibition of SrtA ([Barthels et al., 2020]).

Data set [2] deals with T1, NS2B-NS3 from Zika virus (ZIKV) (Zika virus, UniProt Q32ZE1).
T1 construct: The ZIKV NS2B/NS3 protease is a serine protease and contains two non-catalytic cysteine residues
As to the kind of experiment: protease selectivity panel, fluorometric assay ZIKV NS2B/NS3 protease. Format: biochemical. The conditions noted are these: 100 µM inhibitor; read-out: ZIKV inhibition relative to the DMSO control. The protocol:
(§1) To investigate how these sulfonylpyrimidines affect the activity of other cysteine and serine proteases, a selectivity panel was constructed from a matrix of 6 diverse sulfonylpyrimidines and 6 different proteases. The compounds were assayed at a final compound concentration of 100 µM for the cysteine proteases human cathepsin B (hCatB), cathepsin L (hCatL), and T. brucei rhodesain (Rd). Furthermore, the serine proteases NS2B-NS3 from Zika virus (ZIKV), the homologous protease from Dengue virus (DENV), and the human protease urokinase plasminogen activator (uPA) were tested for their susceptibility.
(§2) Fluorometric assays of the ZIKV/DENV NS2B/NS3 protease were performed as described previously ([Maus et al., 2021]). The assay was carried out in triplicates at 25°C in assay buffer (50 mM Tris, pH 9.0, 20% glycerol (v/v), and 1 mM CHAPS). 100 µM Boc-Gly-Arg-Arg-AMC (Bachem, Bubendorf, Switzerland) was used as a substrate. Fluorometric assays for cathepsin B, cathepsin L, and rhodesain (Calbiochem, Merck Millipore, Burlington, Massachusetts) were performed as described previously ([Klein et al., 2020a]). Cbz-Phe-Arg-AMC (Bachem, Bubendorf, Switzerland) was used as substrate (100 μM for cathepsin B, 6.5 μM for cathepsin L, and 10 µM for rhodesain). Fluorometric assays for urokinase plasminogen activator were performed as described previously ([Angelini et al., 2012]). 240 µM Cbz-Gly-Arg-Arg-AMC (Bachem, Bubendorf, Switzerland) was used as a substrate.

The target of the next data set is DENV NS2B/NS3 protease (Dengue virus type 2, UniProt P29990). As to the kind of experiment: protease selectivity panel, fluorometric assay DENV NS2B/NS3 protease. Format: biochemical. Conditions: 100 µM inhibitor; n. i. = no inhibition at 100 µM; read-out: DENV inhibition relative to the DMSO control. The protocol:
as §1, §2

The next data set deals with T2, cathepsin L (hCatL) (Homo sapiens, UniProt P07711).
T2 construct: purchased Calbiochem, Merck Millipore
As to the kind of experiment: protease selectivity panel, fluorometric assay cathepsin L. It is filed as biochemical. The conditions noted are these: 100 µM inhibitor; read-out: CatL inhibition relative to the DMSO control. As for the experimental part: as §1, §2

For data set [3], the target named is T3, human cathepsin B (hCatB) (Homo sapiens, UniProt P07858).
T3 construct: purchased Calbiochem, Merck Millipore
The data set is described as follows: protease selectivity panel, fluorometric assay cathepsin B. The conditions noted are these: 100 µM inhibitor; read-out: CatB inhibition relative to the DMSO control. It is filed as biochemical. The protocol: as §1, §2

Another data set addresses T4, T. brucei rhodesain (Rd) (Trypanosoma brucei rhodesiense, UniProt Q95PM0).
T4 construct: purchased Calbiochem, Merck Millipore
The data set is described as follows: protease selectivity panel, fluorometric assay rhodesain. It is filed as biochemical. The conditions noted are these: 100 µM inhibitor, n. i. = no inhibition at 100 µM; for inhibition at 100 µM: read-out: Rd inhibition relative to the DMSO control. The protocol: as §1, §2

Another data set concerns the target T5, S. aureus SrtA (Staphylococcus aureus, UniProt Q2FV99).
T5 construct: His tag (inferred from IMAC on a HisTrap column); made in house; host or cells: E. coli BL21 Gold (DE3)
As to the kind of experiment: fluorometric enzyme assay of SrtA transpeptidation (Abz-LPETG-Dap(Dnp)-OH substrate). Format: biochemical. The conditions noted are these: for S. I. (k 2nd/k chem): SrtA k 2nd over cysteine k chem; for k inact: maximum inactivation rate; for k inact / KI (inactivation) / k 2nd: Tris pH 7.50, n. i. = <20% inhibition at 100 µM; for KI (inactivation): read-out: KI, dissociation constant of the reversible enzyme-inhibitor complex; for inhibition at 100 µM: read-out: SrtA inhibition relative to the DMSO control; for k 2nd: second-order rate of inhibition; for SrtA inhibition (in words): fluorometric enzyme assay, inhibitor concentration 100 µM. The protocol:
To evaluate the inhibition potency of the parent sulfonylpyrimidine 4, this compound was tested by means of a fluorometric enzyme assay with recombinantly expressed S. aureus SrtA ([Schmohl et al., 2017b]) and Abz-LPETG-Dap (Dnp)-OH as substrate. […] To verify the irreversible mode of inhibition, we determined the maximum inactivation rate k inact, the dissociation constant of the reversible enzyme-inhibitor complex KI, and the second-order rate of inhibition k 2nd. For compound 4, a k inact = 0.00065 s^−1 was found, which is very low compared to other covalent SrtA inhibitors ([Chan et al., 2017]; [Barthels et al., 2020]; [Jaudzems et al., 2020]).
Inhibition assays of S. aureus SrtA transpeptidation reactions were performed as described previously ([Barthels et al., 2020]). Briefly, the recombinantly expressed SrtA (final concentration: 1 µM) was incubated in assay buffer (50 mM Tris, 150 mM NaCl, 5 mM CaCl2, pH 7.50) with 25 µM of the FRET-pair substrate Abz-LPETG-Dap (Dnp)-OH (Genscript, Piscataway, New Jersey) and 0.5 mM tetraglycine (Sigma Aldrich, St. Louis, Missouri). Inhibitors were added from DMSO stocks. Reactions were initiated by addition of SrtA and monitored for 30 min at 30°C in an Infinite M200 Pro plate reader with λex 320 nm/λem 430 nm (Tecan, Männedorf, Switzerland). Three technical replicates were carried out for each inhibitor in black flat-bottom 96-well plates (Greiner bio-one, Kremsmünster, Austria). The enzyme kinetics of irreversible SrtA inactivation were analyzed as described previously ([Barthels et al., 2020]).

Data set [4] deals with human protease urokinase plasminogen activator (uPA) (Homo sapiens, UniProt P00749). The data set is described as follows: protease selectivity panel, fluorometric assay urokinase plasminogen activator. It is filed as biochemical. Conditions: 100 µM inhibitor; n. i. = no inhibition at 100 µM; read-out: uPA inhibition relative to the DMSO control. The protocol: as §1, §2

Molecules are shown by their SMILES.

Data on 7 molecules can be found in PMC8763382, “2-Sulfonylpyrimidines as Privileged Warheads for the Development of S. aureus Sortase A Inhibitors” (Frontiers in Molecular Biosciences, 2022).

T5 sequence (Q2FV99 60-206): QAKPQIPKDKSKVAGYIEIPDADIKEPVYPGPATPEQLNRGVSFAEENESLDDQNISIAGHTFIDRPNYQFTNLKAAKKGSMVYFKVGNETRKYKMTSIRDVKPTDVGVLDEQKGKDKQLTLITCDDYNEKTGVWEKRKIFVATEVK
Chain of DENV NS2B/NS3 protease (P29990 1398-1437): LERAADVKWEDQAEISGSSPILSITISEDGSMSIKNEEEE
Chain of DENV NS2B/NS3 protease (P29990 1476-1653): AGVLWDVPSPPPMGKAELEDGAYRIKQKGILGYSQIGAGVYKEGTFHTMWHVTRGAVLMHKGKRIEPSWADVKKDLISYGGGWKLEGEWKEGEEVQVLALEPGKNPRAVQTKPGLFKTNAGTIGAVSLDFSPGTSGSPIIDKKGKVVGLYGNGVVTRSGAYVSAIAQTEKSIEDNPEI
T4 sequence (Q95PM0 entry or part of it): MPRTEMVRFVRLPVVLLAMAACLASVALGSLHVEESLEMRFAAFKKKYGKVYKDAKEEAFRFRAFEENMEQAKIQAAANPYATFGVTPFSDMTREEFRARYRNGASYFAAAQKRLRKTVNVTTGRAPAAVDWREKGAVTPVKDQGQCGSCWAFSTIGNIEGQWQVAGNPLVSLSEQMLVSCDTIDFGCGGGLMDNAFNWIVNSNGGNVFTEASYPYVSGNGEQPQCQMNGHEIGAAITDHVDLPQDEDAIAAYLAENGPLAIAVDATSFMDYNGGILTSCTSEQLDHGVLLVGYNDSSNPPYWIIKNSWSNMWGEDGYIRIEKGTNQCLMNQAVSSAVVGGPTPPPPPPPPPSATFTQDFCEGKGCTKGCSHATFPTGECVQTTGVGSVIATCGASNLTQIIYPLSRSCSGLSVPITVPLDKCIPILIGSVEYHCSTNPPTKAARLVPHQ
T1 sequence (Q32ZE1 1499-1676): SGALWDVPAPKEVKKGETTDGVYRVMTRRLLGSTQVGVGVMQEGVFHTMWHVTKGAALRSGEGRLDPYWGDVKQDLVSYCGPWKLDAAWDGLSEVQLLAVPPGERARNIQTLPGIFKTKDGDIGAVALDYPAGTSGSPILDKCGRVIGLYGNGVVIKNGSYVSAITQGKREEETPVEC
T1 sequence (Q32ZE1 1421-1460): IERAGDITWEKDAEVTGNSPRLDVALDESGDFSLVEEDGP
T2 sequence (P07711 114-333): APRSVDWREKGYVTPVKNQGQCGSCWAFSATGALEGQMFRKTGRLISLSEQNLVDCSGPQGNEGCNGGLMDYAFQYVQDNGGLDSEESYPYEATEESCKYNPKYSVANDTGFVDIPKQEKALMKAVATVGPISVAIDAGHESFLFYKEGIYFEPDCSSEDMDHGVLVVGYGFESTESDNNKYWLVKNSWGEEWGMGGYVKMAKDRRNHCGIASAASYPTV

In turn, `CS(=O)(=O)c1ncc(Br)c(C(=O)Nc2cccc(Oc3ccccc3)c2)n1` [Compound 7b] came in with a melting point of 153 °C. In data set [1], this molecule returned a Cysteine k chem of 1.735 ± 0.323 M⁻¹ s⁻¹. Also, in [2], the inhibition at 100 µM came out at 18.3%. Also, on DENV NS2B/NS3 protease, the inhibition at 100 µM came out at 5.2%. The inhibition at 100 µM on cathepsin L (hCatL) is 28.5%. Besides, in data set [3], the inhibition at 100 µM amounted to 12.5%. The inhibition at 100 µM at T. brucei rhodesain (Rd) stood at 4.7%. At S. aureus SrtA, the “S. I. (k 2nd/k chem)” value turned out to be 134, the k inact was found to be 0.01285 ± 0.00147 s⁻¹, the KI (inactivation) worked out at 55.9 ± 11.6 µM and the inhibition at 100 µM was 99.2%. The “k 2nd” value at S. aureus SrtA is given as 13,998 ± 1,462 M^−1min^−1. For the same molecule, the inhibition at 100 µM in [4] stood at 11.2%.
With `CS(=O)(=O)c1ncc(Cl)c(C(=O)Nc2ccccc2Oc2ccccc2)n1` [Compound 6g], the melting point was 177 °C. Besides, the inhibition at 100 µM in [2] was found to be 18.3%. The inhibition at 100 µM at DENV NS2B/NS3 protease turned out to be 2.6%. Moreover, the inhibition at 100 µM on cathepsin L (hCatL) was 29.4%. Also, the inhibition at 100 µM in data set [3] is 11.8%. In addition, the inhibition at 100 µM at T. brucei rhodesain (Rd) came to 15%. Further, at S. aureus SrtA, the “SrtA inhibition (in words)” value is given as “complete abolition of inhibition” and the inhibition at 100 µM came out at 21.8%. Further, the inhibition at 100 µM in data set [4] is 67%.
On to `CS(=O)(=O)c1ncc(Cl)c(C(=O)Nc2cccc(C(=O)c3ccccc3)c2)n1` [Compound 6a], for which the melting point was determined as 175 °C. In addition, the Cysteine k chem in data set [1] worked out at 1.06 ± 0.14 M⁻¹ s⁻¹. Besides, in [2], the inhibition at 100 µM is 18.6%. For the same molecule, the inhibition at 100 µM at DENV NS2B/NS3 protease was 5.1%. Moreover, the inhibition at 100 µM at cathepsin L (hCatL) was 18%. Also, the inhibition at 100 µM in [3] is 5.6%. In addition, at T. brucei rhodesain (Rd), the “Rd inhibition relative to the DMSO control” value was “n. i”. Also, at S. aureus SrtA, the “S. I. (k 2nd/k chem)” value is reported as 327, the k inact was 0.00986 ± 0.00128 s⁻¹, the KI (inactivation) came to 29.6 ± 9.39 µM and the inhibition at 100 µM stood at 98.4%. Further, on S. aureus SrtA, the “k 2nd” value is on record as 20,785 ± 4,074 M^−1min^−1. At S. aureus SrtA (versus virtual screening hit 5a), the “fold more potent based on the k 2nd value” is 2.5 fold. In addition, the inhibition at 100 µM in data set [4] amounted to 2.2%.
For `CS(=O)(=O)c1nc(Cl)cc(NC(=O)c2ccccc2Oc2ccccc2)n1` [Compound 6i], the melting point amounted to 184 °C. In addition, the Cysteine k chem in [1] was determined as 0 M⁻¹ s⁻¹. Further, the inhibition at 100 µM in [2] was determined as 29.3%. The inhibition at 100 µM at DENV NS2B/NS3 protease came to 15%. Moreover, the inhibition at 100 µM on cathepsin L (hCatL) is 21.3%. Further, in data set [3], the inhibition at 100 µM was determined as 9.5%. The inhibition at 100 µM at T. brucei rhodesain (Rd) worked out at 9.2%. Moreover, on S. aureus SrtA, the “SrtA inhibition (in words)” value is “complete loss of inhibition” and the inhibition at 100 µM was 36%. In addition, the inhibition at 100 µM in data set [4] was 59.4%.
For the molecule `Cc1cnc(S(C)(=O)=O)nc1C(=O)Nc1cccc(Oc2ccccc2)c1` [Compound 7d], the melting point worked out at 164 °C. In addition, the Cysteine k chem in [1] amounted to 0.102 ± 0.0285 M⁻¹ s⁻¹. On S. aureus SrtA, the “S. I. (k 2nd/k chem)” value amounted to 196 and the “k 2nd” value was 1,204 ± 139 M^−1min^−1.
`CS(=O)(=O)c1ncc(Cl)c(C(=O)Nc2ccc3[nH]ncc3c2)n1` [Compound 5f] gave a melting point of 231 °C. At S. aureus SrtA, the k inact result is “n. i” and the “k 2nd” value is “n. i”.
On to `CS(=O)(=O)c1ncc(Cl)c(C(=O)Nc2cccc(Cc3ccccc3)c2)n1` [Compound 6d], for which the melting point stood at 148 °C. For the same molecule, on S. aureus SrtA, the k inact was determined as 0.00618 ± 0.00025 s⁻¹, the KI (inactivation) is 60.3 ± 6.4 µM and the “k 2nd” value was 6,181 ± 489 M^−1min^−1.

The term inhibition denotes the percentage by which the read-out fell short of the control. A word on the melting point: it is the temperature, or range, at which the solid turns liquid.
